Experimental data taken from patent US7892789B2, “Method of increasing cell permeability to trehalose by recombinantly producing a trehalose transporter” (priority 2007, dated 2011).

Assays:
TRET1 = biological target: T1, TRET1 (Polypedilum vanderplanki, UniProt A5LGM7); assay type: cell-based
T1 construct: ORF of either Tret1, DmTret1, AmTret1, AgTret1 or BmTret1 cDNA was amplified with PCR; expressed in transfected cells; host or cells: Xenopus laevis oocytes injected with cRNA
T1 sequence (A5LGM7 1-504): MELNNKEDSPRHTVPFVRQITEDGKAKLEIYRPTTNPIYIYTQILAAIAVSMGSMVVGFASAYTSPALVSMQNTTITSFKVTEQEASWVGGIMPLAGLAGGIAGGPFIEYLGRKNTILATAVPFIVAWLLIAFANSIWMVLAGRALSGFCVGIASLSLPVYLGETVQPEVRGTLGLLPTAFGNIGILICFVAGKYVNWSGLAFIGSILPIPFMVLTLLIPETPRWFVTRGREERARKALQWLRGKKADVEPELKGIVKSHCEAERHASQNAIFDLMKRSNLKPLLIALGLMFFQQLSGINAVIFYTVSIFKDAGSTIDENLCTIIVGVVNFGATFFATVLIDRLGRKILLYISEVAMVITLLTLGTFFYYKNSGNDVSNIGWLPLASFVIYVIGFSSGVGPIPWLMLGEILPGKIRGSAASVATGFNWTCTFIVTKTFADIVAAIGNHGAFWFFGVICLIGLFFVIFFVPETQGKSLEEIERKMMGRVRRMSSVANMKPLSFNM
From the text: (§1) The capped RNA (cRNA) expression vector pTRET1-XbG-ev1 series was constructed as follows: ORF of either Tret1, DmTret1, AmTret1, AgTret1 or BmTret1 cDNA was amplified with PCR using specific primers containing Bgl II site at the 5′-end on each primer, respectively. The PCR products were digested with the restriction enzymes, and cloned into the site of Bgl II in pXbG-ev1 (Preston, G. M., et al. (1992) Science 256, 385-387). ORF of hGLUT1 cDNA was obtained by digestion of pSPMM1 with BamH I, and then subcloned into the site of Bgl II in pXbG-2. Template DNAs for cRNA synthesis were amplified from the corresponding cRNA expression vectors with a high fidelity DNA polymerase, KOD—Plus—, (TOYOBO). The cRNAs were synthesized with mMESSAGE mMACHINE T7 Kit (Ambion), and then purified with RNeasy MiniElute Cleanup kit (Qiagen).
Stage V or VI oocytes were extirpated from X. laevis females, and digested ovarian lobes with 0.2% (w/v) collagenase, type II (Sigma-Aldrich) in Ca^2+-free modified Barth's saline (MBS; 88.0 mM NaCl, 1.0 mM KCl, 2.4 mM NaHCO3, 15.0 mM Tris-Cl, 0.82 mM MgSO4, […] penicillin and streptomycin, pH7.6) at 15° C. for 3 h. The oocytes were microinjected with 40 nl of either 1 ng/nl of the TRET1::AcGFP1 or AcGFP1 cRNA, or nuclease-free water (Invitrogen) as a negative control. In order to express TRET1, the oocytes were incubated in MBS (containing 0.41 mM CaCl2) for 3-4 days after injection at 15° C. Fluorescence images of the oocytes injected with the cRNA were observed and analyzed with a fluorescence microscope BZ-8000 (KEYENCE).
(§2) All uptake assays for zero-trans trehalose and/or other sugars were performed using Xenopus oocytes expressing TRET1 at 15° C. in MBS containing appropriate concentrations of sugars. Sugar concentrations were determined using HPLC (Watanabe, M., et al. (2002) J Exp Biol 205, 2799-2802). All assays were carried out in triplicate.
Xenopus oocytes expressing either TRET1 or hGLUT1 were incubated in 105 mM of various sugars for 3 h. Tre: trehalose; Mal: maltose; Suc: sucrose; Lac: lactose; MAG: methyl-a-glucopyranoside; and 2-DOG: 2-deoxy-glucose (FIG. 3B).
In General, transporters contain two sub-classes: facilitated transporters and secondary active transporters. Activities of secondary active transporters are dependent on the electrochemical membrane potential resulting from the distribution of ions such as H^+. For example, proton-dependent MAL11/AGT1 can act only under acidic extracellular conditions (Stambuk, B. U., et al. (1996) Eur J Biochem 237, 876-881). On the other hand, facilitated transporters function independently of the electrochemical membrane potential. Xenopus oocytes expressing TRET1 were incubated in 105 mM trehalose at pH 4.2 and 7.6 for 3 h.
Xenopus oocytes expressing TRET1 were incubated in 105 mM trehalose with either control buffer (Mock; 0.1% acetone), or buffer containing various concentrations of nigericin (Na^+, K^+-ionophore), valinomycin (K^+-ionophore) or CCCP (H^+-ionophore, uncoupler) for 3 h.
In general, facilitated transporters enable their substrates to flow across membranes down concentration gradients. Xenopus oocytes expressing TRET1 were first incubated in 105 mM trehalose for 3 h, and then transferred into trehalose-free buffer and trehalose content was examined over time.
Xenopus oocytes expressing TRET1 were incubated in various concentrations of trehalose for 15 min. Uptake data were fitted to the Michaelis-Menten and Eadie-Hofstee (inset of FIG. 9) equations.

AmTRET1 = biological target: T2, AmTRET1 (Apis mellifera ligustica, UniProt A9ZSY2); assay: Trehalose uptake in Xenopus oocytes expressing AmTRET1; assay type: cell-based; conditions: 105 mM of trehalose, 3 h
T2 construct: ORF of either Tret1, DmTret1, AmTret1, AgTret1 or BmTret1 cDNA was amplified with PCR; expressed in transfected cells; host or cells: Xenopus laevis oocytes injected with cRNA
T2 sequence (A9ZSY2 1-502): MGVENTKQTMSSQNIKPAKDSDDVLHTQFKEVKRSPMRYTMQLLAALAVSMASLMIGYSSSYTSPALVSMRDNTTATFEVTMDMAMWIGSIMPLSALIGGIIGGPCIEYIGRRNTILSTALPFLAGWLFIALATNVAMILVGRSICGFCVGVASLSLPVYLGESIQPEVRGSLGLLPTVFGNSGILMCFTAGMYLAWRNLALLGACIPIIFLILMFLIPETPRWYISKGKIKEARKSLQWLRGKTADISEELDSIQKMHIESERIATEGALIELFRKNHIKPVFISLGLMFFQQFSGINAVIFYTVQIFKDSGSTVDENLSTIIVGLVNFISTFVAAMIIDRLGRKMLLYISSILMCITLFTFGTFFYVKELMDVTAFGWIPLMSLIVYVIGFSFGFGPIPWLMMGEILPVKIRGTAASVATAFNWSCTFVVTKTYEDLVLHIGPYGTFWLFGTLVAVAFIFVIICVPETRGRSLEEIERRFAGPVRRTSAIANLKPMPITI
From the text: as §1
as §2, with “triplicate. […] (data not shown).” for “triplicate.”
Likewise, whether these Tret1-orthologs have trehalose transport activity was examined using the Xenopus oocyte expression system incubated in 105 mM of trehalose for 3 h.

OC[C@H]1O[C@H](O[C@H]2O[C@H](CO)[C@@H](O)[C@H](O)[C@H]2O)[C@H](O)[C@@H](O)[C@@H]1O [trehalose]
time course of trehalose uptake into oocytes expressing TRET1 (TRET1; 105 mM trehalose): increased linearly for at least 6 h
direction of trehalose transport after reversal of concentration gradient (TRET1; 105 mM trehalose 3 h, then trehalose-free buffer): shifted from an inward to outward direction
pH-dependency of TRET1 trehalose transport (TRET1; 105 mM trehalose, pH 4.2 and 7.6, 3 h): acted over a wide extracellular pH range
Vmax of TRET1 for trehalose (TRET1; Xenopus oocytes expressing TRET1): 7.84±0.77 nmol/15 min/oocyte
trehalose transport activity (AmTRET1): showed trehalose transport activity
